Data published in EP1146873B1, “ANTI-ANDROGENS AND METHODS FOR TREATING DISEASE” (SMITHKLINE BEECHAM CORPORATION, priority 1999, dated 2000).

Assays:
estradiol = experiment: Plasma estradiol concentration in male dogs; type: in vivo; settings: for plasma estradiol concentration: single intravenous dose of approximately 26 umoles/kg
Excerpt: (§1) This effect was reversible and was associated with a reduction in serum concentration of luteinizing hormone (LH).

cortisol = experiment: Plasma cortisol concentration in male dogs; type: in vivo; settings: for plasma cortisol concentration: single intravenous dose of approximately 26 umoles/kg
Excerpt: as §1

testosterone [1] = experiment: Serum/plasma testosterone concentration in male dogs after oral or intravenous dosing; type: in vivo; settings: for plasma concentration of testosterone: single intravenous dose of approximately 26 umoles/kg
testosterone [2] = experiment: Plasma testosterone concentration in male rats after oral dosing; type: in vivo; settings: for plasma testosterone concentration: four daily oral doses ≥100 mg/kg, 4 hours after the last dose
Description: (§2) Four daily oral doses ≥100 mg/kg (S)-(-)-N-(α-Ethylbenzyl)-3-(3-carboxy)propoxy-2-phenylquinoline-4-carboxamide or (S)-(-)-N-(α-Ethylbenzyl)-3-carboxymethoxy-2-phenylquinoline-4-carboxamide reduced the plasma testosterone concentration of male rats when measured at 4 hours after the last dose. […] Reductions in plasma testosterone also occurred in male rats following single oral doses of 30 to 1000 mg/kg (S)-(-)-N-(α-Ethylbenzyl)-3-carboxymethoxy-2-phenylquinoline-4-carboxamide. Stimulation of testosterone production in vivo by a LH agonist (human chorionic gonadotropin) was not blocked by a single oral dose of 1000 mg/kg (S)-(-)-N-(α-Ethylbenzyl)-3-carboxymethoxy-2-phenylquinoline-4-carboxamide in male rats.

LH = experiment: Plasma LH concentration in male rats after oral dosing; type: in vivo; settings: four daily oral doses of 300 mg/kg, 4 hours after the last dose
Description: as §2

testosterone production = experiment: Stimulation of testosterone production in vivo by a LH agonist (human chorionic gonadotropin) in male rats; settings: single oral dose of 1000 mg/kg
Description: as §2

reproductive organs [3] = experiment: Once daily oral administration for 1 month, reproductive organ effects in male rats; type: in vivo; settings: 0.1 to 1000 mg/kg per day
Description: (§3) Once daily oral administration of ((S)-(-)-N-(α-Ethylbenzyl)-3-hydroxy-2-phenylquinoline-4-carboxamide) for 1 month to male rats or for 2 weeks to male mice had no effect on the weights and/or histologic appearance of the reproductive organs. The daily doses ranged from 0.1 to 1000 mg/kg per day.

luteinizing hormone (LH) = experiment: Serum luteinizing hormone concentration in male dogs; type: in vivo; settings: single oral dose of 300 mg/kg
Excerpt: as §1

CYP17A1 = biological target: T1, CYP17A1 (Canis lupus familiaris, UniProt A0A8I3PR85); experiment: Enzyme inhibition in lysed dog Leydig cells; type: biochemical
T1 construct: using lysed dog Leydig cells; from tissue; host or cells: lysate of primary Leydig cells isolated from dog testes
T1 sequence (A0A8I3PR85 19-509): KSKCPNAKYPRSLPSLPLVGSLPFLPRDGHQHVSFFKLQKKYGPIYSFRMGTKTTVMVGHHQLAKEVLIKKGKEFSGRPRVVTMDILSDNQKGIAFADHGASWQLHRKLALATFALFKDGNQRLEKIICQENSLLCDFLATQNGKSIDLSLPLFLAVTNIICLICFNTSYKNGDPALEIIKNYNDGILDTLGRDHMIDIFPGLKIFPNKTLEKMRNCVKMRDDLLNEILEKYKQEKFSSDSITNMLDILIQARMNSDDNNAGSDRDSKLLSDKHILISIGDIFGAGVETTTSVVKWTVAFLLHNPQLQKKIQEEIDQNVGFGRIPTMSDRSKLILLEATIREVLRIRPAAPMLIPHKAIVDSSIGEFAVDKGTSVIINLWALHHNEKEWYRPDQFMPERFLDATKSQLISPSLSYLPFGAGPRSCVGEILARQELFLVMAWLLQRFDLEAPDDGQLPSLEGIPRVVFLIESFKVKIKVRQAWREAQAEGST
Description: This effect occurred at incubation concentrations between 10 and 100 uM. […] Neither (S)-(-)-N-(α-Ethylbenzyl)-3-carboxymethoxy-2-phenylquinoline-4-carboxamide nor (S)-(-)-N-(α-Ethylbenzyl)-3-(3-carboxy)propoxy-2-phenylquinoline-4-carboxamide inhibited testosterone synthesis in Leydig cells isolated from the testis of the rat at the highest incubation concentration tested (300 uM). In contrast, (+)-(R)-3-[3-(4-Phenyl-4-N-methylacetamidopiperidin-1-yl)propyl]-3-(3,4-dichlorophenyl)-1-benzoylpiperidine, and (S)-(-)-N-(α-Ethylbenzyl)-3-[(4-methylpiperazin-1-yl)methyl]-2-phenylquinoline-4-carboxamide inhibited testosterone synthesis of isolated rat Leydig cells at incubation concentrations between 3 and 300 uM.

reproductive organs [4] = experiment: Once daily oral administration for 2 weeks, reproductive organ effects in male mice; type: in vivo; settings: 0.1 to 1000 mg/kg per day
Description: as §3

testosterone [5] = experiment: Serum/plasma testosterone concentration in male dogs after oral or intravenous dosing; type: in vivo
Description: The ((S)-(-)-N-(α-Ethylbenzyl)-3-hydroxy-2-phenylquinoline-4-carboxamide)-dependent changes in the testes and prostate of male dogs were associated with reductions in serum concentration of testosterone. Testosterone concentrations were reduced after either a single oral dose of 300 mg/kg (3 of 3 dogs) or 25 daily oral doses of 0.3 (1 of 3 dogs), 3 (2 of 3 dogs) or 300 mg/kg ((S)-(-)-N-(α-Ethylbenzyl)-3-hydroxy-2-phenylquinoline-4-carboxamide) (3 of 3 dogs). Serum testosterone was measured on blood samples obtained every 2 hours for 24 hours after the single dose and every 20 minutes for 4 hours beginning approximately 2 hours after the last of the 25 daily doses. The reductions in serum testosterone observed after one or 25 daily doses of 300 mg/kg ((S)-(-)-N-(α-Ethylbenzyl)-3-hydroxy-2-phenylquinoline-4-carboxamide) were reversible in all dogs (6 of 6) within one week after the cessation of dosing.
as §1

androstenedione = experiment: Plasma androstenedione concentration in male dogs; type: in vivo; settings: single oral dose of 300 mg/kg
Excerpt: as §1

testes and prostate = experiment: Once daily oral administration for 1 month, reproductive organ effects in male beagle dogs; type: in vivo
Description: Once daily oral administration of ((S)-(-)-N-(α-Ethylbenzyl)-3-hydroxy-2-phenylquinoline-4-carboxamide) for 1 month to sexually mature male beagle dogs (12 - 16 months of age) produced decreases in the size and/or weight of testes and prostate. […] The incidence and severity of these changes were dose-related with 1 of 3, 2 of 3, 2 of 3, 6 of 6 and 3 of 3 male dogs affected at doses of 0.3, 3, 30, 300 or 1000 mg/kg per day, respectively.

[6] = single oral dose of 300 mg/kg, male dogs
[7] = once daily oral, 1 month, male beagle dogs

## CC(=O)N(C)C1(c2ccccc2)CCN(CCC[C@]2(c3ccc(Cl)c(Cl)c3)CCCN(C(=O)c3ccccc3)C2)CC1 [(+)-(R)-3-[3-(4-Phenyl-4-N-methylacetamidopiperidin-1-yl)propyl]-3-(3,4-dichlorophenyl)-1-benzoylpiperidine]
estradiol
  plasma estradiol concentration: no effect
cortisol
  plasma cortisol concentration: did not lower
Testosterone [1]
  plasma concentration of testosterone: reduced

## CC[C@H](NC(=O)c1c(OCCCC(=O)O)c(-c2ccccc2)nc2ccccc12)c1ccccc1 [(S)-(-)-N-(α-Ethylbenzyl)-3-(3-carboxy)propoxy-2-phenylquinoline-4-carboxamide]
Testosterone [2]
  plasma testosterone concentration: reduced

## CC[C@H](NC(=O)c1c(OCCCN2CCN(c3ccccc3OC)CC2)c(-c2ccccc2)nc2ccccc12)c1ccccc1 [(S)-(-)-N-(α-Ethylbenzyl)-3-[3-[4-(2-methoxyphenyl)piperazin-1-yl]propoxy]-2-phenylquinoline-4-carboxamide]
estradiol
  plasma estradiol concentration: no effect
cortisol
  plasma cortisol concentration: did not lower
Testosterone [1]
  plasma concentration of testosterone: reduced

## CC[C@H](NC(=O)c1c(OCC(=O)O)c(-c2ccccc2)nc2ccccc12)c1ccccc1 [(S)-(-)-N-(α-Ethylbenzyl)-3-carboxymethoxy-2-phenylquinoline-4-carboxamide]
LH
  plasma LH concentration: reduced
Testosterone production
  stimulation of testosterone production in vivo by a LH agonist (human chorionic gonadotropin): not blocked
Testosterone [2]
  plasma testosterone concentration: reduced
Testosterone [2]; single oral doses of 30 to 1000 mg/kg
  plasma testosterone: Reductions
Testosterone [1]
  plasma concentration of testosterone: reduced

## CC[C@H](NC(=O)c1c(O)c(-c2ccccc2)nc2ccccc12)c1ccccc1 [(S)-(-)-N-(α-Ethylbenzyl)-3-hydroxy-2-phenylquinoline-4-carboxamide]
Reproductive organs [3]
  weights and/or histologic appearance of the reproductive organs: no effect
estradiol; single oral dose of 300 mg/kg
  plasma concentration of estradiol: no effect
cortisol; single oral dose of 300 mg/kg
  plasma concentration of cortisol: no effect
Luteinizing hormone (LH)
  serum concentration of luteinizing hormone (LH): reduction
CYP17A1
  inhibition of the enzyme (CYP17A1) in the testosterone synthetic pathway: inhibition
Reproductive organs [4]
  weights and/or histologic appearance of the reproductive organs: no effect
Testosterone [5]; 25 daily oral doses of 0.3 mg/kg
  dogs with reduced serum testosterone concentration: 1 of 3
Testosterone [5]; 25 daily oral doses of 3 mg/kg
  dogs with reduced serum testosterone concentration: 2 of 3
Testosterone [5]; 25 daily oral doses of 300 mg/kg
  dogs with reduced serum testosterone concentration: 3 of 3
Testosterone [5]; after one or 25 daily doses of 300 mg/kg, within one week after cessation of dosing
  dogs in which reductions in serum testosterone were reversible: 6 of 6
Testosterone [5]; single oral dose of 300 mg/kg
  dogs with reduced serum testosterone concentration: 3 of 3
Testosterone [5]; [6]
  reversibility of decrease in serum testosterone: reversible
  serum concentration of testosterone: rapid and marked decrease
androstenedione
  plasma concentration of androstenedione: reduced
Testes and prostate; 0.3 mg/kg per day oral, 1 month
  male dogs affected (testes and prostate changes): 1 of 3
Testes and prostate; 3 mg/kg per day oral, 1 month
  male dogs affected (testes and prostate changes): 2 of 3
Testes and prostate; 30 mg/kg per day oral, 1 month
  male dogs affected (testes and prostate changes): 2 of 3
Testes and prostate; 300 mg/kg per day oral, 1 month
  male dogs affected (testes and prostate changes): 6 of 6
Testes and prostate; 1000 mg/kg per day oral, 1 month
  male dogs affected (testes and prostate changes): 3 of 3
Testes and prostate; male beagle dogs
  reversibility of testes and prostate changes: demonstrated
Testes and prostate; [7]
  histologic evaluation of prostate: diffuse atrophy of the prostate gland
  histologic evaluation of testes: degeneration of the seminiferous epithelium of the testes with depletion of spermatogonia, spermatocytes and spermatids
Testes and prostate; once daily oral, 1 month, sexually mature male beagle dogs
  size and/or weight of testes and prostate: decreases
Testosterone [1]
  plasma concentration of testosterone: reduced
Testosterone [1]; single oral dose of 300 mg/kg, post-dose
  duration of decrease in serum testosterone: at least 24 hours
